# Activity calls are given as the source filed them. The calls are words filed in the database; no cut-off is given here.
# Tests used:
# [1] = system: HCT-116; test: Induction of apoptosis in p53 knockout human HCT-116 cells assessed as increase in LC3-II expression upto 4 uM incubated for 24 hrs by Western blot analysis; assay type: functional, cell-based
# [2] = system: HCT-116; test: Induction of apoptosis in human HCT-116 cells assessed as viable cells at 2 uM incubated for 24 hrs by annexin V FITC/propidium iodide staining based flow cytometry (reference value: 83 %); assay type: functional; details: read-out: Activity
# [3] = system: HCT-116; test: Antiproliferative activity against p53 knockout human HCT-116 cells assessed as inhibition of cell growth measured after 24 hrs by CCK-8 assay; assay type: functional, cell-based; details: HCT-116, 24 h
# [4] = system: HCT-116; test: Induction of autophagy in human HCT-116 cells assessed as increase in LC3-II expression at 3 uM measured after 48 to 60 hrs by Western blot analysis; assay type: functional, cell-based; details: time 48-60 hrs
# [5] = system: 786-0; test: Antiproliferative activity against human 786-0 cells assessed as inhibition of cell growth measured after 48 hrs by MTT assay; assay type: functional, cell-based; details: 786-0, 48 h
# [6] = system: HCT-116; test: Inhibition of colony formation in ATG7 knockout human HCT-116 cells upto 4 uM […] by crystal violet staining based analysis; assay type: functional, cell-based
# [7] = system: HCT-116; test: Antiproliferative activity against ATG5 knockout human HCT-116 cells assessed as inhibition of cell growth measured after 24 hrs by CCK-8 assay; assay type: functional, cell-based; details: HCT-116, 24 h
# [8] = system: HCT-116; test: Antiproliferative activity against human HCT-116 cells expressing ATG7-FLAG assessed as inhibition of cell growth measured after 24 hrs by CCK-8 assay; assay type: functional, cell-based; details: HCT-116, 24 h
# [9] = system: HCT-116; test: Induction of morphological changes in human HCT-116 cells assessed as reduction in intercellular contact at 2 to 6 uM measured after 24 hrs by microscopic analysis; assay type: functional, cell-based; details: dose 2-6 µM
# [10] = system: HCT-116; test: Downregulation of DNA repair gene in human HCT-116 cells at 2 uM incubated for 24 hrs by RNA sequencing analysis; assay type: functional, cell-based
# [11] = system: HCT-116; test: Induction of apoptosis in ATG5 knockout human HCT-116 cells assessed as increase in caspase 3 expression upto 4 uM incubated for 24 hrs by Western blot analysis; assay type: functional, cell-based
# [12] = system: HCT-116; test: Induction of apoptosis in human HCT-116 cells assessed as necrotic cells at 1 uM incubated for 24 hrs by annexin V FITC/propidium iodide staining based flow cytometry (reference value: 7.7%); assay type: functional
# [13] = system: HCT-116; test: Inhibition of colony formation in ATG5 knockout human HCT-116 cells upto 4 uM […] by crystal violet staining based analysis; assay type: functional, cell-based
# [14] = system: HCT-116; test: Induction of apoptosis in human HCT-116 cells assessed as late apoptotic cells at 2 uM incubated for 24 hrs in presence of Z-VAD-FMK by annexin V FITC/propidium iodide staining based flow cytometry (reference value: 4.6 %); assay type: functional
# [15] = system: HCT-116; test: Induction of apoptosis in human HCT-116 cells assessed as necrotic cells at 2 uM incubated for 24 hrs in presence of Z-VAD-FMK by annexin V FITC/propidium iodide staining based flow cytometry (reference value: 2.9 %); assay type: functional
# [16] = system: HCT-116; test: Downregulation of oxidative phosphorylation gene in human HCT-116 cells at 2 uM incubated for 24 hrs by RNA sequencing analysis; assay type: functional, cell-based
# [17] = system: HCT-116; test: Induction of apoptosis in human HCT-116 cells assessed as late apoptotic cells at 1 uM incubated for 24 hrs in presence of Z-VAD-FMK by annexin V FITC/propidium iodide staining based flow cytometry (reference value: 4.6 %); assay type: functional
# [18] = system: HCT-116; test: Induction of apoptosis in human HCT-116 cells assessed as increase in caspase 3 expression upto 5 uM incubated for 24 hrs by Western blot analysis; assay type: functional, cell-based
# [19] = system: HCT-116; test: Antiproliferative activity against human HCT-116 cells assessed as inhibition of cell growth measured after 24 hrs by CCK-8 assay; assay type: functional, cell-based; details: HCT-116, 24 h
# [20] = system: HCT-116; test: Induction of autophagy in ATG7 knockout human HCT-116 cells assessed as increase in LC3-II expression upto 4 uM measured after 24 hrs by Western blot analysis; assay type: functional, cell-based
# [21] = system: HCT-116; test: Induction of autophagy in human HCT-116 cells expressing ATG7-FLAG assessed as increase in LC3-II expression upto 4 uM measured after 24 hrs by Western blot analysis; assay type: functional, cell-based
# [22] = system: HCT-116; test: Induction of apoptosis in human HCT-116 cells assessed as viable cells at 1 uM incubated for 24 hrs in presence of Z-VAD-FMK by annexin V FITC/propidium iodide staining based flow cytometry (reference value: 86.2 %); assay type: functional; details: read-out: Activity
# [23] = system: HCT-116; test: Induction of apoptosis in human HCT-116 cells assessed as necrotic cells at 2 uM incubated for 24 hrs by annexin V FITC/propidium iodide staining based flow cytometry (reference value: 7.7%); assay type: functional
# [24] = system: HCT-116; test: Upregulation of IFN-alpha response pathway in human HCT-116 cells at 2 uM incubated for 24 hrs by RNA sequencing analysis; assay type: functional, cell-based
# [25] = system: MCF7; test: Antiproliferative activity against human MCF7 cells assessed as inhibition of cell growth measured after 48 hrs by MTT assay; assay type: functional, cell-based; details: MCF7, 48 h
# [26] = system: HCT-116; test: Upregulation of bile acid metabolism pathway in human HCT-116 cells at 2 uM incubated for 24 hrs by RNA sequencing analysis; assay type: functional, cell-based
# [27] = system: HCT-116; test: Induction of autophagy in human HCT-116 cells assessed as increase in LC3-II expression at 3 uM measured upto 36 hrs by Western blot analysis; assay type: functional, cell-based
# [28] = system: CT26; test: Antitumor activity against […] CT26 cells xenografted in C57BL/6 mouse assessed as reduction in tumor weight at 45 mg/kg, ip administered once every two days measured after 16 days; assay type: functional; set-up: scale not given: the % may be the effect or the level left; details: time 16 day
# [29] = system: HCT-116; test: Upregulation of Kras signaling pathway in human HCT-116 cells at 2 uM incubated for 24 hrs by RNA sequencing analysis; assay type: functional, cell-based
# [30] = system: HCT-116; test: Induction of autophagy in human HCT-116 cells assessed as increase in p62 expression upto 5 uM incubated for 24 hrs by Western blot analysis; assay type: functional, cell-based
# [31] = system: HCT-116; test: Downregulation of mTORC1 signaling pathway in human HCT-116 cells at 2 uM incubated for 24 hrs by RNA sequencing analysis; assay type: functional, cell-based
# [32] = system: HCT-116; test: Induction of morphological changes in human HCT-116 cells assessed as appearance of wrinkled cells at 2 to 6 uM measured after 24 hrs by microscopic analysis; assay type: functional, cell-based; details: dose 2-6 µM
# [33] = system: HCT-116; test: Induction of apoptosis in p53 knockout human HCT-116 cells assessed as increase in cleaved caspase 3 expression upto 5 uM incubated for 24 hrs by Western blot analysis; assay type: functional, cell-based
compound,measurement,setting,value
CN1CCN(Cc2cc3c4ccccc4n(CCCc4ccccc4)c3c(CN3CCN(C)CC3)n2)CC1,Activity,[1],Active
same,viability at 2 µM,[2],82.1%
same,IC50,[3],4.71 µM
same,Activity,[4],inactive
same,IC50,[5],2710 nM
same,inhibition,[6],inactive
same,IC50,[7],7.36 µM
same,IC50,[8],5.09 µM
same,Activity,[9],Active
same,Activity,[10],Active
same,Activity,[11],inactive
same,Activity,[12],6%
same,inhibition,[13],inactive
same,Activity,[14],4.6%
same,Activity,[15],6.3%
same,Activity,[16],Active
same,Activity,[17],4.9%
same,Activity,[18],inactive
same,IC50,[19],4.97 µM
same,Activity,[20],inactive
same,Activity,[21],Active
same,viability at 1 µM,[22],84.8%
same,Activity,[23],4.9%
same,Activity,[24],Active
same,IC50,[25],13.5 µM
same,Activity,[26],Active
same,Activity,[27],Active
same,Activity,[28],69.69%
same,Activity,[29],Active
same,Activity,[30],Active
same,Activity,[31],Active
same,Activity,[32],Active
same,Activity,[33],inactive

# Reference: ChEMBL document CHEMBL5352452, “Design, synthesis and pharmacological evaluation of β-carboline derivatives as potential antitumor agent via targeting autophagy” (Eur J Med Chem, 2023)
